This is an account of results in patent US5602229A, “Pentapeptide antibiotics” (Gruppo Lepetit S.p.A., priority 1989, dated 1997).

The subject of data set [1] is Staphylococcus aureus Tour. In words: In vitro MIC, two-fold dilution test in microtiter. In kind it is cell-based. To be noted: Oxoid ISO-SENSITEST broth, inoculum about 10^4 CFU/ml, 18-24 h at 37° C. On the procedure:
(§1) Broth cultures are diluted enough so that the final inoculum is about 10^4 colony forming units/ml (CFU/ml).

Data set [2] deals with Staphylococcus epidermidis ATCC 12228. The data set can be described thus: In vitro MIC, two-fold dilution test in microtiter. In kind it is cell-based. The conditions noted are these: Oxoid ISO-SENSITEST broth, inoculum about 10^4 CFU/ml, 18-24 h at 37° C. Here is the method: as §1
The subject of data set [3] is Streptococcus faecalis ATCC 7080. The data set can be described thus: In vitro MIC, two-fold dilution test in microtiter. The conditions noted are these: Oxoid ISO-SENSITEST broth, inoculum about 10^4 CFU/ml, 18-24 h at 37° C. In kind it is cell-based. On the procedure: as §1
The subject of the next data set is Streptococcus mitis 796. In words: In vitro MIC, two-fold dilution test in microtiter. In kind it is cell-based. To be noted: inoculum about 10^4 CFU/ml, 18-24 h at 37° C. On the procedure:
as §1

The subject of data set [4] is Streptococcus pneumoniae UC41. In words: In vitro MIC, two-fold dilution test in microtiter. In kind it is cell-based. To be noted: Difco Todd-Hewitt broth, inoculum about 10^4 CFU/ml, 18-24 h at 37° C. On the procedure: as §1
Another data set deals with Strept. pyogenes C 203. The data set can be described thus: In vitro MIC, two-fold dilution test in microtiter. In kind it is cell-based, Streptococcus pyogenes. To be noted: Difco Todd-Hewitt broth, inoculum about 10^4 CFU/ml, 18-24 h at 37° C. On the procedure: as §1
Data set [5] in a line: Acid-base titration (pKa). It counts as physicochemical. On the procedure: Acid-base titrations were carried out under the following conditions: the sample was dissolved in a mixture methyl cellosolve/H2 O 4/1, then an excess of 0.01M HCl in the same solvent mixture was added and the resulting solution was titrated with 0.01N NaOH.
The mark [6] stands for this setting: methyl cellosolve/H2O 4/1, excess 0.01M HCl, titrated with 0.01N NaOH.

Where two headings read alike, the source gives them in different places.

As for “reductive cleavage product of teicoplanin A2 component 2 [Example 2]”, the “MIC, STAPH. AUREUS TOUR” value in data set [1] was 8 micrograms/ml. Moreover, the “MIC, STAPH. EPIDERMIDIS ATCC 12228” value in data set [2] is reported as 2 micrograms/ml. The “MIC, STREPT. FAECALIS ATCC 7080” value in data set [3] worked out at 4 micrograms/ml. The “MIC, STREPT. MITIS 796” value in the data set with Streptococcus mitis 796 was 4 micrograms/ml. In addition, in data set [4], the “MIC, STREPT. PNEUMONIAE UC 41” value is 4 micrograms/ml. For the same substance, the “MIC, STREPT. PYOGENES C 203” value against Strept. pyogenes C 203 is on record as 1 micrograms/ml. In data set [5], this substance gave a pKa1 of 4.1, a pKa2 of 5.9 and a pKa3 of 7.3.
Regarding “reductive cleavage product of antibiotic L 17046 [Example 4]”, in data set [5] (setting [6]), the pKa1 was determined as 4.6, the pKa2 stood at 5.8 and the pKa3 is recorded as 7.5.
“reductive cleavage product of antibiotic L 17054 [Example 3]” registered a pKa1 in data set [5] (setting [6]) of 4.7.
In data set [5] (setting [6]), “reductive cleavage product of ristocetin [Example 8]” returned a pKa2 of 6.2 and a pKa3 of 7.8.
In the case of “reductive cleavage product of vancomycin [Example 6]”, the “MIC, STAPH. AUREUS TOUR” value in data set [1] amounted to 16 micrograms/ml. Moreover, the “MIC, STAPH. EPIDERMIDIS ATCC 12228” value in data set [2] came out at 32 micrograms/ml. Also, the “MIC, STREPT. FAECALIS ATCC 7080” value in data set [3] was found to be 16 micrograms/ml. The “MIC, STREPT. PYOGENES C 203” value against Strept. pyogenes C 203 turned out to be 8 micrograms/ml.
Regarding “reductive cleavage product of antibiotic A/40926 [Example 9]”, in data set [1], the “MIC, STAPH. AUREUS TOUR” value is given as 16 micrograms/ml. Also, the “MIC, STREPT. PNEUMONIAE UC 41” value in data set [4] came out at 16 micrograms/ml. Further, the “MIC, STREPT. PYOGENES C 203” value with Strept. pyogenes C 203 is reported as 2 micrograms/ml. Moreover, in data set [5], the pKa1 turned out to be 4.5, the pKa2 is listed as 5.9 and the pKa3 is 7.5.
As to “reductive cleavage product of antibiotic L 17392 [Example 5]”, in data set [1], the “MIC, STAPH. AUREUS TOUR” value was found to be 4 micrograms/ml. For the same substance, in data set [2], the “MIC, STAPH. EPIDERMIDIS ATCC 12228” value came to 2 micrograms/ml. The “MIC, STREPT. FAECALIS ATCC 7080” value in data set [3] was determined as 16 micrograms/ml. In addition, the “MIC, STREPT. MITIS 796” value in the data set with Streptococcus mitis 796 is on record as 16 micrograms/ml. Besides, the “MIC, STREPT. PNEUMONIAE UC 41” value in data set [4] is given as 16 micrograms/ml. Further, in the data set with Strept. pyogenes C 203, the “MIC, STREPT. PYOGENES C 203” value was found to be 8 micrograms/ml. In addition, in data set [5], the pKa1 amounted to 4.5 and the pKa2 was determined as 5.5.
